Measurements published in ChEMBL document CHEMBL5241069, “A key review on oxadiazole analogs as potential methicillin-resistant Staphylococcus aureus (MRSA) activity: Structure-activity relationship studies” (Eur J Med Chem, 2021).
≈ marks a conversion by molar mass, not a printed value.

What was measured:
Staphylococcus aureus [1] = assay: Antimicrobial activity against methicillin resistant Staphylococcus aureus 2658 RCMB assessed as inhibition of bacterial growth incubated for 20 hrs by CLSI protocol based broth microdilution method; format: functional
Staphylococcus aureus [2] = assay: Antimicrobial activity against methicillin resistant Staphylococcus aureus 3 assessed as inhibition of bacterial growth incubated for 16 to 20 hrs by CLSI protocol based Muller-Hinton broth method; format: functional; details: time 16-20 hrs
Staphylococcus aureus [3] = assay: Antimicrobial activity against methicillin resistant Staphylococcus aureus 1 assessed as inhibition of bacterial growth incubated for 16 to 20 hrs by CLSI protocol based Muller-Hinton broth method; format: functional; details: time 16-20 hrs
Staphylococcus aureus [4] = assay: Antimicrobial activity against methicillin resistant Staphylococcus aureus 2 assessed as inhibition of bacterial growth incubated for 16 to 20 hrs by CLSI protocol based Muller-Hinton broth method; format: functional; details: time 16-20 hrs
Staphylococcus aureus [5] = assay: Antibacterial activity against methicillin resistant Staphylococcus aureus assessed as inhibition zone by CLSI protocol based agar disc diffusion method; format: functional
Staphylococcus aureus [6] = assay: Antibacterial activity against methicillin resistant Staphylococcus aureus ATCC 43300 assessed as inhibition of bacterial growth incubated for 24 to 48 hrs by spectrophotometric analysis; format: functional; details: time 24-48 hrs
Staphylococcus aureus [7] = assay: Antibacterial activity against methicillin resistant Staphylococcus aureus MTCC 84 incubated for 24 hrs by serial dilution method; format: functional
Staphylococcus aureus [8] = assay: Antimicrobial activity against methicillin resistant Staphylococcus aureus ATCC 25923 assessed as inhibition of bacterial growth by agar diffusion cup plate method; format: functional
[9] = Cytotoxicity against rat NRK-52E cells assessed as inhibition of cell growth incubated for 24 hrs by CCK-8 assay; format: toxicity, cell-based
Staphylococcus aureus [10] = assay: Antibacterial activity against methicillin resistant Staphylococcus aureus USA300 assessed as inhibition of bacterial growth incubated for 16 to 20 hrs by CLSI protocol based Mueller-Hinton broth method; format: functional; details: time 16-20 hrs
Staphylococcus aureus [11] = assay: Antibacterial activity against methicillin resistant Staphylococcus aureus MW2 assessed as inhibition of bacterial growth incubated for 16 to 20 hrs by CLSI protocol based Mueller-Hinton broth method; format: functional; details: time 16-20 hrs
Staphylococcus aureus [12] = assay: Antibacterial activity against methicillin resistant Staphylococcus aureus assessed as inhibition of bacterial growth; format: functional, organism-based
Staphylococcus aureus [13] = assay: Antibiofilm activity against methicillin resistant Staphylococcus aureus ATCC 43866 assessed as inhibition of biofilm formation incubated for 18 to 24 hrs by tissue culture plate method; format: functional; details: time 18-24 hrs
Staphylococcus aureus [14] = assay: Antibacterial activity against methicillin resistant Staphylococcus aureus 42 assessed as inhibition of bacterial growth; format: functional
Staphylococcus aureus [15] = assay: Antibacterial activity against methicillin resistant Staphylococcus aureus 181 assessed as inhibition of bacterial growth; format: functional
Staphylococcus aureus [16] = assay: Antibacterial activity against methicillin resistant Staphylococcus aureus 747 assessed as inhibition of bacterial growth; format: functional
Staphylococcus aureus [17] = assay: Antibacterial activity against methicillin resistant Staphylococcus aureus 128 assessed as inhibition of bacterial growth; format: functional
Staphylococcus aureus [18] = assay: Antimicrobial activity against methicillin resistant Staphylococcus aureus USA300 assessed as inhibition of bacterial growth incubated for 16 to 20 hrs by CLSI protocol based method; format: functional; details: time 16-20 hrs
Staphylococcus aureus [19] = assay: Antimicrobial activity against Staphylococcus aureus Newman assessed as inhibition of bacterial growth incubated for 16 to 20 hrs by CLSI protocol based method; format: functional; details: time 16-20 hrs
Staphylococcus aureus [20] = assay: Antimicrobial activity against methicillin resistant Staphylococcus aureus A252 assessed as inhibition of bacterial growth incubated for 16 to 20 hrs by CLSI protocol based method; format: functional; details: time 16-20 hrs
Staphylococcus aureus [21] = assay: Antibacterial activity against methicillin resistant Staphylococcus aureus assessed as inhibition zone by disc diffusion method; format: functional
Staphylococcus aureus [22] = assay: Potency index, ratio of ciprofloxacin MIC to test compound MIC for antibacterial activity against methicillin resistant Staphylococcus aureus ATCC 43300 assessed as inhibition of bacterial growth incubated for 24 to 48 hrs by spectrophotometric analysis; format: functional; details: time 24-48 hrs
Staphylococcus aureus [23] = assay: Potency index, ratio of chloramphenicol MIC to test compound MIC for antibacterial activity against methicillin resistant Staphylococcus aureus ATCC 43300 assessed as inhibition of bacterial growth incubated for 24 to 48 hrs by spectrophotometric analysis; format: functional; details: time 24-48 hrs

CNC(=N)Nc1nnc(-c2sc(-c3ccc4ccccc4c3)nc2C)o1
MIC (Staphylococcus aureus [1]): 3.9 µg/mL (≈ 10.7 µM)

CCn1cc(C(=O)O)c(=O)c2cc(F)c(N3CCN(Cc4nnc(-c5cccc(C)c5)o4)CC3)cc21
MIC (Staphylococcus aureus [2]): 2 µg/mL (≈ 4.07 µM)
MIC (Staphylococcus aureus [3]): 1 µg/mL (≈ 2.03 µM)
MIC (Staphylococcus aureus [4]): 1 µg/mL (≈ 2.03 µM)

O=[N+]([O-])c1ccc(C(Nc2nnc(-c3cccc(Br)n3)o2)P(=O)(Oc2ccccc2)Oc2ccccc2)cc1F (stereo not drawn)
inhibition zone (IZ) (Staphylococcus aureus [5]): 17 mm

O=C(N[C@H](CO)[C@H](O)c1ccc([N+](=O)[O-])cc1)C(Cl)Cl [CHLORAMPHENICOL]
MIC (Staphylococcus aureus [6]): 50 µg/mL (≈ 155 µM)

O=P(Oc1ccccc1)(Oc1ccccc1)C(Nc1nnc(-c2cccc(Br)n2)o1)c1ccc(Cl)c(F)c1 (stereo not drawn)
inhibition zone (IZ) (Staphylococcus aureus [5]): 17 mm

CN[C@@H]1[C@H](O[C@H]2[C@H](O[C@H]3[C@H](O)[C@@H](O)[C@H](N=C(N)N)[C@@H](O)[C@@H]3N=C(N)N)O[C@@H](C)[C@]2(O)C=O)O[C@@H](CO)[C@H](O)[C@H]1O [STREPTOMYCIN]
MIC (Staphylococcus aureus [7]): > 100 µg/mL

Cc1nc(-c2ccc3ccccc3c2)sc1-c1nnc(NN)o1
MIC (Staphylococcus aureus [1]): 3.9 µg/mL (≈ 12.1 µM)

Cc1nnc(-c2ccc(O)cc2)o1
MIC (Staphylococcus aureus [8]): 25 µg/mL (≈ 142 µM)

CCn1cc(C(=O)O)c(=O)c2cc(F)c(N3CCN(Cc4nnc(-c5cccc(OC)c5)o4)CC3)cc21
MIC (Staphylococcus aureus [2]): 1 µg/mL (≈ 1.97 µM)
MIC (Staphylococcus aureus [3]): 0.5 µg/mL (≈ 0.985 µM)
MIC (Staphylococcus aureus [4]): 0.25 µg/mL (≈ 0.493 µM)
IC50 at 24 h [9]: > 200 µg/mL

COc1cc(OC)cc(-c2nnc(NC(=O)c3ccc(S(=O)(=O)C4COCC4(C)C)cc3)o2)c1 (stereo not drawn)
MBC (Staphylococcus aureus [10]): 8 µg/mL (≈ 16.4 µM)
MBC (Staphylococcus aureus [11]): 16 µg/mL (≈ 32.8 µM)

O=C(/C=C/c1cccc(F)c1)N1N=C(c2ccncc2)OC1c1cn(-c2ccccc2)nc1-c1ccc(F)cc1 (stereo not drawn)
MIC (Staphylococcus aureus [6]): 25 µg/mL (≈ 46.9 µM)

O=P(Oc1ccccc1)(Oc1ccccc1)C(Nc1nnc(-c2cccc(Br)n2)o1)c1cccc(F)c1 (stereo not drawn)
inhibition zone (IZ) (Staphylococcus aureus [5]): 17 mm

2-((phenylbismuthino)thio)-5-(2-(p-tolyl)thiazol-4-yl)-1,3,4-oxadiazole
MIC (Staphylococcus aureus [12]): 1.1 µM

CN[C@H](CC(C)C)C(=O)N[C@H]1C(=O)N[C@@H](CC(N)=O)C(=O)N[C@H]2C(=O)N[C@H]3C(=O)N[C@H](C(=O)N[C@H](C(=O)O)c4cc(O)cc(O)c4-c4cc3ccc4O)[C@H](O)c3ccc(c(Cl)c3)Oc3cc2cc(c3O[C@@H]2O[C@H](CO)[C@@H](O)[C@H](O)[C@H]2O[C@H]2C[C@](C)(N)[C@H](O)[C@H](C)O2)Oc2ccc(cc2Cl)[C@H]1O [VANCOMYCIN]
MIC (Staphylococcus aureus [13]): 6.25 µg/mL (≈ 4.31 µM)
MIC (Staphylococcus aureus [14]): 13.1 µg/mL (≈ 9.04 µM)
MIC (Staphylococcus aureus [1]): 1.95 µg/mL (≈ 1.35 µM)
MIC (Staphylococcus aureus [15]): 20.3 µg/mL (≈ 14 µM)
MIC (Staphylococcus aureus [16]): 21.6 µg/mL (≈ 14.9 µM)
MIC (Staphylococcus aureus [17]): 20.7 µg/mL (≈ 14.3 µM)

Cc1ccc(OCc2nnco2)c(C(=O)c2cccc(Cl)c2)c1
MIC (Staphylococcus aureus [7]): 62.5 µg/mL (≈ 190 µM)

O=C(Nc1nnc(-c2ccc(F)cc2)o1)c1cccc(C(F)(F)F)c1
MIC (Staphylococcus aureus [18]): 0.35 µg/mL (≈ 0.996 µM)
MIC (Staphylococcus aureus [19]): 0.7 µg/mL (≈ 1.99 µM)
MIC (Staphylococcus aureus [20]): 0.7 µg/mL (≈ 1.99 µM)

CCn1cc(C(=O)O)c(=O)c2cc(F)c(N3CCNCC3)cc21 [NORFLOXACIN]
MIC (Staphylococcus aureus [2]): 1 µg/mL (≈ 3.13 µM)
MIC (Staphylococcus aureus [3]): 1 µg/mL (≈ 3.13 µM)
MIC (Staphylococcus aureus [4]): 2 µg/mL (≈ 6.26 µM)

Cc1nc(-c2ccc3ccccc3c2)sc1-c1nnc(NC(=N)N)o1
MIC (Staphylococcus aureus [1]): 1.95 µg/mL (≈ 5.56 µM)

O=C(O)c1cn(C2CC2)c2cc(N3CCNCC3)c(F)cc2c1=O [CIPROFLOXACIN]
inhibition zone (IZ) (Staphylococcus aureus [21]): 22 mm
MIC (Staphylococcus aureus [7]): > 100 µg/mL

O=C(/C=C/c1ccc(F)cc1)N1N=C(c2ccncc2)OC1c1cn(-c2ccccc2)nc1-c1ccc(F)cc1 (stereo not drawn)
MIC (Staphylococcus aureus [6]): 6.25 µg/mL (≈ 11.7 µM)
Ratio (Staphylococcus aureus [22]): 4
Ratio (Staphylococcus aureus [23]): 8
